Results: the supplement of paper PMC4862054

What was measured:
Experiment in all cases: normalised response (% of control), CellTiter-Glo; higher = more viable cells (100 = DMSO, 0 = benzethonium chloride kill control)
Details in all cases: incubation time: 72 h
MCF-10A = system: MCF-10A
Outline: (§1)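 For each plate, 0.1 % DMSO was set to 100 and a positive kill control to 0. Breast cancer cell lines (20 µl suspension) were seeded into 384-well plates already holding compound at 5 concentrations in 10-fold steps over a 10,000-fold range chosen per compound, and incubated for 72 h. CellTox Green fluorescence at 485/520 nm was read before CellTiter-Glo luminescence, which followed 10 min at room temperature. Each value is the normalised signal at one concentration.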

BT-474 = system: BT-474
Outline: as §1

HCC1143 = system: HCC1143
Outline: as §1

MDA-MB-436 = system: MDA-MB-436
Outline: as §1

HDQ-P1 = system: HDQ-P1
Outline: as §1

DU-4475 = system: DU-4475
Outline: as §1

MDA-MB-468 = system: MDA-MB-468
Outline: as §1

Hs578T = system: Hs578T
Outline: as §1

MFM-223 = system: MFM-223
Outline: as §1

MDA-MB-453 = system: MDA-MB-453
Outline: as §1

CAL-51 = system: CAL-51
Outline: as §1

MDA-MB-231 = system: MDA-MB-231
Outline: as §1

CAL-120 = system: CAL-120
Outline: as §1

CAL-148 = system: CAL-148
Outline: as §1

SK-BR-3 = system: SK-BR-3
Outline: as §1

HCC1599 = system: HCC1599
Outline: as §1

HCC1937 = system: HCC1937
Outline: as §1

BT-549 = system: BT-549
Outline: as §1

CAL-85-1 = system: CAL-85-1
Outline: as §1

Structure (SMILES)	normalised response (MCF-10A)	normalised response (BT-474)	normalised response (HCC1143)	normalised response (MDA-MB-436)	normalised response (HDQ-P1)	normalised response (DU-4475)	normalised response (MDA-MB-468)	normalised response (Hs578T)	normalised response (MFM-223)	normalised response (MDA-MB-453)	normalised response (CAL-51)	normalised response (MDA-MB-231)	normalised response (CAL-120)	normalised response (CAL-148)	normalised response (SK-BR-3)	normalised response (HCC1599)	normalised response (HCC1937)	normalised response (BT-549)	normalised response (CAL-85-1)
COc1ncc(-c2ccc3nccc(-c4ccnnc4)c3c2)cc1NS(=O)(=O)c1ccc(F)cc1F (1 nM)	94.2%	91.6%	101%	93.1%	81.3%	103%	109%	101%	109%	98.2%	111%	92.9%	93%	105%	84.6%	95.3%	95.3%	93.5%	101%
Cn1cnc2c(F)c(Nc3ccc(Br)cc3F)c(C(=O)NOCCO)cc21 [MEK-162] (1 nM)	96.1%	106%	99.6%	101%	93.2%	99.7%	103%	95.4%	103%	103%	108%	99%	100%	102%	116%	99.7%	96.3%	99.8%	95.7%
CCCC(CCC)C(=O)O [Valproic acid] (100 nM)	101%	98.9%	102%	106%	101%	96.2%	97.1%	104%	95.5%	109%	103%	105%	103%	102%	95.8%	88.9%	96.4%	99.7%	97.1%
Cc1cc(C(C)Nc2ccccc2)c2nc(N3CCOCC3)cc(=O)n2c1 (centres undefined) [TGX-221] (10 nM)	92.3%	92.5%	102%	98%	95.4%	97.9%	94.7%	97.6%	96.3%	98.6%	96.5%	92.2%	94.5%	95%	93.2%	98.4%	98.8%	95.2%	98.2%
CCOc1cc2ncc(C#N)c(Nc3ccc(OCc4ccccn4)c(Cl)c3)c2cc1NC(=O)/C=C/CN(C)C [Neratinib] (1 nM)	109%	100%	101%	97.1%	93.8%	105%	101%	104%	106%	99.5%	80%	107%	96.9%	107%	73.3%	99.2%	96.7%	96.3%	94.5%
COC(=O)C[C@](O)(CCCC(C)(C)O)C(=O)O[C@@H]1C(OC)=C[C@]23CCCN2CCc2cc4c(cc2[C@H]13)OCO4 [Omacetaxine] (10 nM)	123%	103%	109%	88.7%	96.1%	75.5%	101%	108%	106%	109%	94%	105%	103%	115%	110%	92.5%	100%	104%	98.6%
C[C@@H]1C=C2C(=O)O[C@@H]3CC[C@H](C1)[C@]23O [Galiellalactone] (50 nM)	114%	104%	107%	106%	104%	105%	106%	104%	114%	108%	101%	104%	102%	111%	112%	98.2%	102%	98.9%	102%
Nc1nccc(-c2c(-c3ccc(F)cc3)ncn2C2CCCCC2)n1 (1 nM)	110%	97.9%	109%	100%	101%	102%	94.1%	104%	102%	95.5%	119%	105%	95.7%	105%	108%	104%	105%	109%	98.8%
CS(=O)(=O)OCCCCOS(C)(=O)=O [Busulfan] (100 nM)	108%	101%	112%	97.2%	99.7%	109%	106%	105%	112%	109%	121%	101%	99.1%	101%	97.5%	94.5%	97.9%	97.2%	98.1%
C[C@@H]1CCN(C(=O)CC#N)C[C@@H]1N(C)c1ncnc2[nH]ccc12 [Tofacitinib] (0.5 nM)	111%	106%	98%	102%	103%	117%	103%	100%	103%	103%	71.3%	104%	99%	113%	113%	102%	97.3%	95.6%	107%
COC1=CC(c2cc3ccccc3[nH]2)=N/C1=C\c1[nH]c(C)cc1C [Obatoclax] (10 nM)	94.7%	95%	95.5%	91%	92.6%	100%	98.9%	99.4%	91.4%	104%	121%	94.6%	98.8%	89.9%	90.2%	92.2%	94.6%	96.9%	93.6%
CCS(=O)(=O)c1cccc(-c2cc(C(=O)NC3CCN(C)CC3)c(C)c3[nH]c4ncc(C)cc4c23)c1 [TAK-901] (1 nM)	113%	98.5%	108%	95.5%	96%	108%	110%	103%	112%	97%	87.8%	101%	98.1%	108%	100%	117%	94.2%	101%	98%
O=C(c1ccc(OCCN2CCCCC2)cc1)c1c(-c2ccc(O)cc2)sc2cc(O)ccc12 [Raloxifene] (10 nM)	106%	105%	115%	101%	107%	107%	112%	105%	105%	94.7%	68.2%	99.8%	98.7%	106%	107%	100%	106%	94.8%	99%
CS(=O)(=O)CCNCc1ccc(-c2ccc3ncnc(Nc4ccc(OCc5cccc(F)c5)c(Cl)c4)c3c2)o1 [Lapatinib] (0.1 nM)	98.4%	102%	99.2%	86.2%	101%	109%	112%	101%	104%	121%	110%	100%	96%	110%	114%	90.2%	98.8%	101%	106%
FC(F)c1nc2ccccc2n1-c1nc(N2CCOCC2)nc(N2CCOCC2)n1 [ZSTK474] (1 nM)	106%	98.8%	96.8%	97.9%	101%	96.6%	100%	102%	99%	106%	81.5%	99.7%	97.7%	96.8%	97.7%	101%	100%	104%	92.5%
COc1cc(Nc2ncc(F)c(Nc3ccc4c(n3)NC(=O)C(C)(C)O4)n2)cc(OC)c1OC [Tamatinib] (1 nM)	111%	98.5%	108%	105%	101%	106%	101%	111%	108%	121%	105%	107%	102%	102%	112%	114%	98.5%	101%	97.9%
